Converted amounts (≈) assume the structure as drawn.
How the values were obtained:
Assay in all cases: In vitro activity, dilution method in liquid medium (MIC)
Format in all cases: cell-based
[1] = test system: Pseudomonas aeruginosa 1771 strains wild type; details: for Activity against Pseudomonas aeruginosa (in words): in vitro
Procedure: (§1) A series of tubes are prepared in which equal quantities of sterile nutrient medium are placed, and increasing quantities of the product being studied are placed in each tube then each tube is plated with a bacterial strain. After 24 hours incubation in an oven at 37° C., the growth inhibition is assessed by transillumination, which makes it possible to determine the minimum inhibition concentrations (MIC) expressed in μg/ml.
Tests are carried out in this way with the products of Examples 1 and 2 and compared with the products of Examples and 19 of application WO 02/100860.

[2] = test system: Pseudomonas aeruginosa strains resisting via β-lactamases; details: Resisting via β-lactamases [8 strains]
Procedure: as §1

[3] = test system: Pseudomonas aeruginosa PA01 wild type
Procedure: as §1

[4] = test system: Pseudomonas aeruginosa strain resisting via porin mutations; details: for MIC (μg/ml) 24 h: Resisting via porin mutations [1 strain]
Procedure: as §1

[5] = test system: Pseudomonas aeruginosa strains resisting via efflux pumps
Procedure: as §1

[6] = 1771 strains wild type, 24 h incubation at 37° C.
[7] = Resisting via efflux pumps, second set [5 strains]
[8] = Pseudomonas aeruginosa, 24 h, read-out: MIC (μg/ml) 24 h

| Molecule | MIC (μg/ml) 24 h [1, 6] | MIC (μg/ml) 24 h [2] | MIC (μg/ml) 24 h [3] | MIC (μg/ml) 24 h [4] | MIC (μg/ml) 24 h ([5]; Resisting via efflux pumps [11/5 strains], set not given) | Activity against Pseudomonas aeruginosa (in words) [1] | MIC (μg/ml) 24 h [5, 7] | MIC (μg/ml) 24 h ([5]; Resisting via efflux pumps, first set [11 strains]) | MIC ([1]; Pseudomonas aeruginosa, 1771 strains wild type, 24 h incubation at 37° C., read-out: MIC (μg/ml) 24 h) | MIC [2, 8] | MIC ([3]; Pseudomonas aeruginosa, PA01WILDTYPE, 24 h, read-out: MIC (μg/ml) 24 h) | MIC [4, 8] | MIC [5, 8] |
| --- | --- | --- | --- | --- | --- | --- | --- | --- | --- | --- | --- | --- | --- |
| CC(C)(O/N=C(\C(=O)N[C@@H]1C(=O)N2C(C(=O)[O-])=C(C[n+]3ccccc3)CS[C@H]12)c1csc(N)n1)C(=O)O [Ceftazidine, reference compound] | 1 µg/mL (≈ 1.83 µM) | 2 to 32 µg/mL | 2 µg/mL (≈ 3.66 µM) | 2 µg/mL (≈ 3.66 µM) | <=0.03-8 μg/ml | – | – | – | – | – | – | – | – |
| The sodium and trifluoroacetate salt of trans[[8-(amino-methyl)-4,8-dihydro-6-oxo-5-(sulphooxy)-4,7-methano-7H-pyrazolo[3,4-e][1,3]diazepin-6(5H)-one [Ex 2] | 0.25 µg/mL | 0.25 to 1 µg/mL | – | – | – | very active | —/0.5-1 μg/ml | – | – | – | – | – | – |
| sodium and trifluoroacetate salts of trans[[8-(aminomethyl)-4,8-dihydro-1-methyl-6-oxo-5-(sulfooxy)-4,7-methano-7H-pyrazolo[3,4-e][1,3]diazepin-6(5H)-one [Ex 1] | 0.12 µg/mL | 1 to 2 µg/mL | 1 µg/mL | 2 µg/mL | – | very active | 0.25 to 0.5 µg/mL | 0.5 to 4 µg⁻¹ mL⁻¹ | – | – | – | – | – |
| C[C@@H](O)[C@H]1C(=O)N2C(C(=O)O)=C(SCCN=CN)C[C@H]12 [Imipenem, reference compound] | – | – | – | – | – | – | – | – | 1 µg/mL (≈ 3.34 µM) | 2 to 32 µg/mL (≈ 6.68 to 107 µM) | 1 µg/mL (≈ 3.34 µM) | 16 µg/mL (≈ 53.4 µM) | 0.25 to 4 µg/mL (≈ 0.835 to 13.4 µM) |
